Results reported in patent publication US20210171577A1, “COMBINATORIAL ANTIBIOTIC DERIVATIVES BASED ON SUPRAMOLECULAR STRUCTURES” (priority 2017, published 2021).
“And” between values parts separate entries of the source, which are not always exact repeats. Identical values can stand only once. Marks after values point to notes of the source that are not given here.

What was measured:
Escherichia coli IMI2001 [1] = test: Neutropenic peritonitis/sepsis model in mice, dose response (Example 5); format: in vivo, NMRI mice
Procedure: The objective of this study was to study the dose response relationship after intravenous (iv) administration of a single dose of SKPA (CBT) in the range of 0.1612 mg/kg. The effect was investigated against resistant E. coli IMI2001 in a neutropenic peritonitis model. Administration of meropenem at a dose of 40 mg/kg was included as a positive control group. The number of colonies in the blood and peritoneal fluid was determined 5 hours after administration. The mouse peritonitis/sepsis model is a well-known model for antimicrobial activity studies as described by N. FrimodtMoller and J. D.
30 female outbred NMRI mice, 2530 grams (Harlan Scandinavia).
Escherichia coli IMI2001 from IMINAMN, Kharkov, Ukraine. Clinical isolate from a human wound from 2003 with multidrug resistance (to ampicillin, ceftazidime, aztreonam, gentamicin, ciprofloxacin).
ASCA in Ringer's acetate, pH 6, 1.2 mg/ml, 6.0 ml. The solution was stored at 4° C. until use. The analyzes of the compositions used for administration were performed at the end of the phase of the study conducted on live animals, and the following results were obtained in these analyzes.
(§1) The introduction of cyclophosphamide to mice. Neutropenia was induced in mice by injection of 0.5 ml of cyclophosphamide solution intraperitoneally 4 days (200 mg/kg) and 1 day (100 mg/kg) before infection.
(§2) Infection of mice. Fresh E. coli IMI2001 colonies obtained overnight in an agar plate and 5% horse blood were suspended and diluted in sterile saline to approximately 2×10^6 CFU/ml. One hour before the start of administration (time point 1 h), mice were intraperitoneally infected with 0.5 ml of a suspension of E. coli in the lateral lower quadrant of the abdomen. Approximately 0.51 hours after the administration, 45 μl of neurofen (20 mg ibuprofen per ml, corresponding to 30 mg/kg) was orally administered to the mice as a painkiller.
The introduction of drugs to mice. Mice were given a single intravenous administration of CBT, meropenem, or excipient into the lateral tail vein for approximately 30 seconds in a volume of 10 ml/kg at time 0 h (see Table 1). The dose determination was based on an average body weight of 30 g. Mice with a body weight of 2832 g were injected with 0.30 ml of solution. Mice weighing 2728 g were injected with 0.25 ml of the solution and mice weighing 32.136 g were injected with 0.35 ml of the solution.
T indicates time relative to administration. The numbers in the columns of the sampling represent the identification numbers of mice. Clinical scoring of mice. Mice were observed during the study and assigned them scores from 0 to 5 depending on their behavior and clinical signs.
The number of colonies was determined in blood and peritoneal fluid for 0 and 5 hours. Mice were anesthetized with CO2+O2 and blood was taken from an axillary incision into Eppendorf tubes coated with ethylene diamine tetraacetic acid (EDTA). Mice were sacrificed immediately after blood sampling, and a total of 2 ml of sterile physiological saline was administered intraperitoneally and a gentle massage of the abdomen was performed until it was opened and the fluid samples were pipetted. Then, each sample was diluted 10 times in physiological saline and drops of 20 μl were applied to blue agar plates. All agar plates were incubated for 1822 hours at 35° C. in air.
Results. The number of colonies was determined at the beginning of administration and 5 hours after administration. Before the calculations, a log 10 transformation of the CFU count was performed.
Dose response curves (data not shown) were calculated in GraphPad Prism using a sigmoid dose response curve (variable angle). […] The maximum effect of CBT, Emax, was determined as the difference in log CFU in the absence of response and at the maximum response. The lack of response was characterized as the number of colonies at a level determined in mice that were injected with vehicle. […]

Escherichia coli IMI2001 [2] = test: Peritonitis/sepsis model in neutropenic NMRI mice, effect over time at 7.5 mg/kg (Example 6); format: in vivo
Procedure: The objective of this study was to investigate the effectiveness of CPR in vivo after intravenous (iv) administration of a single dose of 7.5 mg/kg. The effect was tested against Escherichia coli IMI2001 in a peritonitis model in neutropenia NMRI mice to avoid the use of mucin, which is commonly used in a mouse peritonitis model. Neutropenia was induced in mice by injection of cyclophosphamide. Administration of meropenem at a dose of 40 mg/kg was included as a positive control group and vehicle administration was included as a negative control group. The number of colonies in peritoneal fluid and blood was determined 2 and 5 hours after administration.
30 female outbred mice NMRI, 2832 grams (Kiev).
Escherichia coli IMI2001 from IMINAMN, Ukraine, Kharkov. Clinical isolate from a human wound from 2013 with multidrug resistance (to ampicillin, ceftazidime, aztreonam, gentamicin, ciprofloxacin).
PPC in Ringer's acetate, pH 6, 1.2 ml, 0.75 mg/ml.
as §1
as §2, with “AID #172” for “IMI2001”, “2.5 h” for “Approximately 0.51 hours”, “administration with significant clinical signs of infection, mice were orally administered” for “the administration,”, “which corresponded” for “corresponding”, “mg/kg)” for “mg/kg) was orally administered to the mice”
Score mice. At each sampling in mice, a clinical assessment of the clinical signs of infection was performed.
The introduction of drugs to mice. The mice were given a single intravenous administration of CPR, meropenem, or excipient into the lateral tail vein for approximately 30 seconds at a time point of 0 h (see Table 6). The dose determination was based on an average body weight of 30 g. Mice with a body weight of 2832 g were injected with 0.30 ml of solution. Mice weighing 2728 g were injected with 0.25 ml of the solution and mice weighing 32.136 g were injected with 0.35 ml of the solution. Mice 17 accidentally injected 0.35 ml, despite the fact that its body weight was 29.5 g.
Fence samples. The number of colonies was determined in blood and peritoneal fluid at 0, 2 and 5 hours after administration according to Table 6.
Mice were anesthetized with CO2+O2 and blood sampling was performed from a section in the axillary region. The mice were sacrificed by cervical dislocation and a total of 2 ml of sterile physiological saline was injected intraperitoneally and a gentle massage of the abdomen was performed, then it was opened and a sample of the fluid was pipetted. Each sample was diluted 10 times in saline and drops of 20 μl were applied to plates with blood agar. All agar plates were incubated for 1822 hours at 35° C. in air.

Escherichia coli IMI2001 [3] = test: Model of hip (femoral) infection with neutropenia in mice (Example 7); format: in vivo, NMRI mice
Procedure: Introduction The objective of this study was to study the dose response after intravenous (iv) administration of a single dose of CPR in the range of 0.1612 mg/kg. The effect was investigated against E. coli IMI2001 in a model of femoral infection with neutropenia. Administration of meropenem at a dose of 40 mg/kg was included as a positive control group. The number of colonies in the hips was determined 5 hours after administration. The hip infection model is a well-known model for studies of the antimicrobial effect and tissue penetration, as described by S. Gudmundsson & N. Erlensdottir: Handbook of Animal Models of Infection (1999), ed. by O. Zak & M. A. Sande, Academic Press, San Diego, US, and some other publications. See the review by D. Andes & C. Craig: Animal model pharmacokinetics and pharmacodynamics: a critical review. International Journal of Antimicrobial Agents, 19 (4): 261268.
Materials and methods. 40 female outbred mice NMRI, 2530 grams (Kiev, Ukraine). Escherichia coli IMI2001 from IMINAMN, Kharkov, Ukraine. Clinical isolate from a human wound from […] with multidrug resistance (to ampicillin, ceftazidime, aztreonam, gentamicin, ciprofloxacin).
PPC in Ringer's acetate, pH 6, 1.2 mg/ml, 6.0 ml. The solution was stored at 4° C. until use. The analyzes of the compositions used for administration were performed at the end of the phase of the study conducted on live animals, and the following results were obtained in these analyzes.
as §1
Infection of mice. […]
The number of colonies was determined in the hips at 0 and 5 h. […]
Results. The number of colonies was determined at the beginning of administration and 5 hours after administration. […] CFU/ml in the infectious material was determined to be 7.35 log 10, which corresponds to […]. […]

[4] = test system: multiresistant strains of microorganisms and fungi; test: Antimicrobial activity in vitro, collection of multiresistant test strains (summary statements); format: cell-based; settings: resistant fungal strains
[5] = Meropenem 40 mg/kg single iv, T = 5 h, individual mice
[6] = Meropenem 40 mg/kg single iv, T = 5 h, p < 0.01 vs filler
[7] = Meropenem 40 mg/kg single iv, individual mice, score 0-5
[8] = Meropenem 40 mg/kg single iv, 2 h
[9] = Meropenem 40 mg/kg single iv, 5 h
[10] = Meropenem 40 mg/kg single iv, T = 2 h, individual mice

## C[C@@H](O)[C@H]1C(=O)N2C(C(=O)O)=C(S[C@@H]3CN[C@H](C(=O)N(C)C)C3)[C@H](C)[C@H]12 [Meropenem, meropenem]
Escherichia coli IMI2001 [1]; [5]
  log10 CFU Blood: 2.48 log10 CFU and 1.70 log10 CFU and 2.95 log10 CFU
  log10 CFU PF: 3.92 log10 CFU and 1.70 log10 CFU and 2.30 log10 CFU
Escherichia coli IMI2001 [1]; [6]
  log10 CFU Average in PF: 2.64 log10 CFU
Escherichia coli IMI2001 [1]; Meropenem 40 mg/kg single iv, T = 5 h, p < 0.05 vs filler
  log10 CFU Blood average: 2.38 log10 CFU
Escherichia coli IMI2001 [1]; [7]
  Clinical Score T = 5 h: 1 (2×) and 0
Escherichia coli IMI2001 [1]; meropenem 40 mg/kg iv, 5 h
  CFU compared with excipient, blood (p<0.05) and peritoneal fluid (p<0.01): significant decrease
Escherichia coli IMI2001 [2]; [8]
  Difference in CFU level compared with filler, blood: blood −0.82 log CFU/ml
  Difference in CFU level compared with filler, peritoneum: 2 h: peritoneum −1.51 log CFU/ml
Escherichia coli IMI2001 [2]; [9]
  Difference in CFU level compared with filler, blood: blood −1.64 log CFU/ml
  Difference in CFU level compared with filler, peritoneum: 5 h: peritoneum −1.51 log CFU/ml
Escherichia coli IMI2001 [2]; Meropenem 40 mg/kg single iv, T = 2 h
  log10 CFU Blood (group average): 3.76 log10 CFU
Escherichia coli IMI2001 [2]; [10]
  log10 CFU Blood: 3.60 log10 CFU and 3.57 log10 CFU and 4.11 log10 CFU
  log10 CFU PF: 4.12 log10 CFU and 3.40 log10 CFU and 4.24 log10 CFU
Escherichia coli IMI2001 [2]; Meropenem 40 mg/kg single iv, T = 2 h, p < 0.01 vs filler
  log10 CFU PF (group average): 3.92 ** log10 CFU
Escherichia coli IMI2001 [2]; [5]
  log10 CFU Blood: 3.20 log10 CFU and 2.85 log10 CFU and 3.26 log10 CFU
  log10 CFU PF: 4.38 log10 CFU and 4.00 log10 CFU and 4.26 log10 CFU
Escherichia coli IMI2001 [2]; [6]
  log10 CFU Blood (group average): 3.10** log10 CFU
  log10 CFU PF (group average): 4.21 ** log10 CFU
Escherichia coli IMI2001 [2]; [7]
  Score T = 2 h: 1
  Score T = 5 h: 0
Escherichia coli IMI2001 [2]; meropenem 40 mg/kg, 2 hours after administration
  significant decrease of CFU compared with filler group: only in the peritoneal fluid
Escherichia coli IMI2001 [2]; meropenem 40 mg/kg, after 5 hours, p<0.01
  CFU compared with filler group, blood and peritoneal fluid: significant decrease
Escherichia coli IMI2001 [3]; Meropenem 40 mg/kg single iv, T = 5 h
  log10 CFU, hip, The average: 4.25 log10 CFU
Escherichia coli IMI2001 [3]; Meropenem 40 mg/kg single iv, T = 5 h, individual mice, smallest value of group excluded from average
  log10 CFU, hip: 4.99 log10 CFU and 3.94 log10 CFU
Escherichia coli IMI2001 [3]; meropenem 40 mg/kg iv, 5 h
  CFU compared with vehicle, hip: definite but insignificant decrease

## C[C@@H]1[C@H](O)[C@@H](C)/C=C/C=C/CC/C=C/C=C/C=C/C=C/C(O[C@H]2O[C@H](C)[C@@H](O)[C@H](N)[C@@H]2O)CC2O[C@](O)(CC(O)C(O)CCC(O)CC(O)CC(O)CC(=O)O[C@H]1C)CC(O)C2C(=O)O (stereo partly drawn) [nystatin]
[4]
  antifungal activity: did not exert antifungal activity

## C[C@@H]1[C@H](O)[C@@H](C)/C=C/C=C/C=C/C=C/C=C/C=C/C=C/[C@H](O[C@@H]2O[C@H](C)[C@@H](O)[C@H](N)[C@@H]2O)C[C@@H]2O[C@](O)(C[C@@H](O)C[C@@H](O)[C@H](O)CC[C@@H](O)C[C@@H](O)CC(=O)O[C@H]1C)C[C@H](O)[C@H]2C(=O)O [amphotericin]
[4]
  antifungal activity: did not exert antifungal activity
